The values that follow come from paper PMC4635624, “In vitro and in vivo single-agent efficacy of checkpoint kinase inhibition in acute lymphoblastic leukemia” (Journal of Hematology & Oncology, 2015).

Data set [1] deals with normal bone marrow mononuclear cells. As to the kind of experiment: Viability of primary cultures of normal cells. In kind it is cell-based, human. Conditions: 24 h of exposure at 100, 500, and 1000 nM. Here is the method:
The efficacy of PF-00477736 was confirmed in primary blast cells from 14 newly diagnosed cases including ten BCR-ABL1-positive (71 %) cases and four BCR-ABL1-negative ALL cases (29 %). Leukemic cells were incubated with increasing concentrations of drug (0.1, 0.5, and 1 μM) for 24 h.
Normal bone marrow progenitors were harvested from bone marrow aspirations performed in lymphoma patients undergoing initial staging procedures, which then resulted negative for lymphoma infiltration. Normal peripheral blood progenitors were harvested from healthy donors.
(§1) In order to assess the cell viability after treatment with PF-00477736 (Pfizer), ALL cell lines were seeded in 96-well plates at 50,000 cell/100 μl/well with increasing concentrations of drug (0.005–2 μM) for 24 and 48 h and incubated at 37 °C. Cell viability was assessed by adding WST-1 reagent (Roche Applied Science, Basel, Switzerland) to the culture medium at 1:10 dilution. Cells were incubated at 37 °C, and the optical density was measured by microplate ELISA reader at λ = 450 after 3 h. […] In ex-vivo primary leukemia cells, the effects on cell viability were assessed by counting viable and non-viable cell numbers by the trypan blue dye exclusion method. […] Cellular viability was calculated as a percentage of the viable cells compared to the untreated controls (DMSO 0.1 %).

A further data set has as its system primary ALL blast cells. As to the kind of experiment: Ex-vivo viability of primary leukemia cells (trypan blue dye exclusion). In kind it is cell-based, human. The method, then:
The efficacy of PF-00477736 was confirmed in primary blast cells from 14 newly diagnosed cases including ten BCR-ABL1-positive (71 %) cases and four BCR-ABL1-negative ALL cases (29 %). Leukemic cells were incubated with increasing concentrations of drug (0.1, 0.5, and 1 μM) for 24 h. […]
as §1

Another data set has as its system NALM-6 cell line. Kind of data set: Cell cycle analysis (propidium iodide). The settings on record: 0.1, 0.5, 1 μM, 24 h; reduced percentage of cells in G1 phase. Format: cell-based, human. Here is the method:
(§2) The effect of the inhibition of Chk1 pathway on cell cycle progression was evaluated in RPMI-8402, BV-173, SUP-B15, and NALM-6 cell lines. Cells were incubated with increasing concentrations of PF-00477736 for 6 and 24 h and then stained with propidium iodide to quantify the DNA amount.
(§3) In order to evaluate the effect of PF-00477736 on cell cycle progression, NALM-6, SUPB-15, RPMI-8402, and BV-173 cell lines were seeded in a 24-well plate at 500,000 cell/1 ml with increasing concentrations of PF-00477736 (0.1, 0.5, and 1 μM for NALM-6 and SUP-B15; 0.05, 0.1, and 0.2 μM for RPMI-8402 and BV-173). After 6 and 24 h, cells were harvested and fixed overnight using ethanol at 70 %. Then, cells were stained using PI/RNase Staining Buffer according to the manufacturer’s instruction (BD Pharmingen), and the cell cycle profile was detected using FACSCanto II instrument. The percentage of the different cell cycle phases was performed using the DNA cell-cycle analysis software for flow cytometry data, ModFit LT (Verity).

For data set [2], the system named is RPMI-8402, BV-173, and SUP-B15 cell lines. As to the kind of experiment: Cell cycle analysis (propidium iodide). Format: cell-based, human. The settings on record: increasing concentrations, 24 h; concomitant increment of cell debris. Here is the method: as §2, §3
The next data set has as its system NALM-6 cells. The settings on record: NALM-6 γ-H2A.X positive cells.
For data set [3], the system named is mice transplanted with T-ALL (ENU-induced murine leukemia). Kind of data set: In vivo efficacy in mice transplanted with T-ALL. Here is the method:
Leukemic mice were generated by the usage of the tumorigenic agent N-ethyl-N-nitrosourea (ENU). […] Leukemic blasts coming from the spleen of leukemic animals were transplanted into C57BL/6Ly5.1-recipient mice. Three days after transplantation, a time sufficient for leukemic blasts to home the bone marrow of the host, we started to treat the animals.
Experiments involving mice were performed in agreement with Italian guidelines and after the approval of the Institutional Review Board of the European Institute of Oncology. Leukemic mice were generated by a single administration of the tumorigenic agent N-ethyl-N-nitrosourea (Sigma, 50 mg/kg intraperitoneally). Spleen cells from leukemic C57BL6/Ly5.2 mice were injected intravenously (2 × 10^6 cells/mouse) into non-irradiated, recipient C57BL6/Ly5.1 mice. PF-0077736 was administered intraperitoneally starting from day 3 after the transplant of leukemic cells. Mice received doses of PF-0077736 (40 mg/kg each dose) every 3 days for four treatments (q3dx4). Kaplan-Meyer rank test was used to compare the survival rate between treated and control mice.

Molecules are shown by their SMILES. Several values for one entry are separate records, joined by “and”; a condition that tells them apart may be missing. Identical values can stand only once. Entries after “also recorded” stand apart in the source; their conditions may differ. Like-named read-outs stand apart in the source and are kept apart here.

Method for NALM-6 cells: The so-called hyper-γ-H2A.X-positive cells loose the typical foci signal of γ-H2A.X and emit a much higher and diffuse signal of γ-H2A.X positivity.
NALM-6 and BV-173 cells were seeded to poly-D lysine-coated slides, fixed with 4 % PFA (paraformaldehyde), and stained at 37 °C with a mouse anti-H2A.X-Phosphorylated Alexa 647 conjugated antibody (BioLegend). Then, they were treated with DAPI (4.6 diamidino-2-phenylindole; Sigma Aldrich), and the slides were mounted with Mowiol (Calbiochem). Images were acquired with wide field fluorescence microscope Olympus BX61 fully motorized driven by Metamorph software, and the analysis was performed using the freeware ImageJ software.

For `Cn1cc(-c2[nH]c3cc(NC(=O)[C@H](N)C4CCCCC4)cc4c3c2C=NNC4=O)cn1` [PF-00477736], the cell viability result in data set [1] is listed as “did not reduce viability”. Also, the IC50 in the data set with primary ALL blast cells (primary ALL sample of one patient per table row (ID in c1), class of IC50 at 24 hours, read-out: Sensitivity) was 500 to 1000 nM and 100 to 500 nM; in the data set with primary ALL blast cells (primary blast cells, 21 % (3/14) of cases, 24 h, read-out: IC50 at 24 h, poor responders), greater than 1000 nM. Also, the cell cycle profile entry in the data set on NALM-6 cell line is “progressively increased the percentage of cells in G2/M phase”; in data set [2], “progressive reduction of the number of cells in S and G2/M phase”. The “fold change of mean value intensity of γ-H2A.X, treated vs untreated” value with NALM-6 cells was 1.4 fold. Also, in data set [3] (40 mg/kg intraperitoneally q3dx4, five treated vs seven control mice, p value =0.0009, listed as PF-0477736), the “overall survival vs vehicle” value is given as “significantly increases the overall survival; also recorded: increases the survival of treated mice”. Also, the “survival of treated animals post transplantation” value in data set [3] (40 mg/kg intraperitoneally q3dx4 from day 3 after transplant, five mice, controls (PBS) die all at day 17) is “up to 59 days”. In addition, the “toxicity for the animals” value in data set [3] (40 mg/kg, q3dx4 schedule, intraperitoneally) was “seems not to be toxic”.
